Entries after “also recorded” stand apart in the source; their conditions may differ. Where a SMILES comes first, the peptide text is derived from it. Bridges are numbered along the chain shown (N, C = ends). Roman numbers before positions name the chains, in order.
Columns and labels:
Agarabi CHO cells = test: In vitro cytotoxicity assay (CellTiter-Glo ATP viability) on Agarabi CHO cells; type: cell-based; details: for positive effect on viability of dipeptide combined with Cu(II): Agarabi CHO cells, 96 h, selected combinations of dipeptide and Cu(II)
Method: (§1) Human mesenchymal stem cells (MSCs) were cultivated in MesenCult™-ACF Plus Culture Kit (Stemcell Technologies). The medium was prepared according to the manufacturer's instructions with addition of […] gentamicin and 2 mM I-glutamine. Agarabi CHO cells were cultivated in ActiPro medium supplemented with 6 mM I-glutamine. “Complete growth medium” references the medium with added supplements used for the cultivation of the corresponding cell type.
(§2) Stock solutions of Cu(II), I-cysteine, N, N′-di-I-alanyl-I-cysteine ((Ala-Cys)2) and N, N′-di-I-lysyl-I-cysteine ((Lys-Cys)2) were brought into solution in the corresponding complete growth medium immediately prior to their use. For the assay performed with combinations of Cu(II) and I-cysteine, (Ala-Cys)2 or (Lys-Cys)2 on MSCs, the dissolved single compounds were mixed together at 2× treatment concentration. On MSCs, I-cysteine and the dipeptides were tested at 0.5 mM, 1 mM and 5 mM; Cu(II) was tested at 0.2 μM, 1 μM and 5 μM. For the treatment of Agarabi CHO cells, serial dilutions of I-cysteine, (Ala-Cys)2 and (Lys-Cys)2 stock solutions in complete growth medium were performed with 2× treatment concentration at each dilution step. On Agarabi CHO cells, I-cysteine and the dipeptides were tested at 2.5 mM, 5 mM and 10 mM; Cu(II) was tested at 2.5 μM, 10 μM and 40 μM.
(§3) The cytotoxicity of the test compounds and their combinations was assayed on MSCs and Agarabi CHO cells cultivated in white 96-well cell culture plates at 5.000 cells/well. MSCs (50 μL/well) were cultivated for 24 h in a CO2-incubator (37° C., 5% CO2, 95% humidity) to ensure cell adhesion. This was followed by the addition of the prepared 2× concentrated test compounds and mixtures (50 μL/well). […]
(§4) After incubation, the viability of the treated cells was determined based on adenosine triphosphate (ATP) quantification using the CellTiter-Glo® Luminescent Cell Viability Assay (Promega) according to the manufacturer's instructions.
(§5) To calculate the cell viability, resulting luminescence values were averaged and normalized to the signal emitted by the untreated cells.

[1] = tested on: Human mesenchymal stem cells (MSCs); test: In vitro cytotoxicity assay (CellTiter-Glo ATP viability) on MSCs; type: cell-based; details: for positive effect on viability of dipeptide combined with Cu(II): 24 h, selected combinations of dipeptide and Cu(II)
Method: as §1, §2, §3, §4, §5

Row | Compound | positive effect on viability of dipeptide combined with Cu(II) (Agarabi CHO cells) | positive effect on viability of dipeptide combined with Cu(II) [1] | effect of single component on cell viability (Agarabi CHO cells; CHO cells, single component control, Cu(II) up to 40 μM) | effect of single component on cell viability ([1]; single component controls, L-cysteine and dipeptides up to 5 mM, Cu(II) up to 5 μM)
1 | C[C@H](N)C(=O)N[C@@H](CSSC[C@H](NC(=O)[C@H](C)N)C(=O)O)C(=O)O [(Ala-Cys)2, N,N′-di-L-alanyl-L-cystine] (I: H-Ala-Cys-OH / II: H-Ala-Cys-OH; disulfide I:2-II:2) | pronounced positive effect on viability; also recorded: viability was even increased | pronounced positive effect on viability; also recorded: viability was even increased | – | –
2 | NCCCC[C@H](N)C(=O)N[C@@H](CSSC[C@H](NC(=O)[C@@H](N)CCCCN)C(=O)O)C(=O)O [(Lys-Cys)2, N,N′-di-L-lysyl-L-cystine] (I: H-Lys-Cys-OH / II: H-Lys-Cys-OH; disulfide I:2-II:2) | pronounced positive effect on viability; also recorded: viability was even increased | pronounced positive effect on viability; also recorded: viability was even increased | – | –
3 | O.O.O.O.O.O=S(=O)([O-])[O-].[Cu+2] [Cu(II), Copper (II) sulfate pentahydrate, reference compound] | – | – | did not have a negative effect on viability | did not have a negative effect on viability
